Results as given in US9656978B2, “Acylpiperazines as inhibitors of transglutaminase and their use in medicine” (ASTON UNIVERSITY, priority 2012, dated 2017).

Tests used:
Type in all cases: biochemical
[1] = biological target: T1, purified recombinant human TG2 (tissue transglutaminase) (Homo sapiens, UniProt P21980); assay: TG2 transamidation activity, biotin X-cadaverine incorporation into N,N′-dimethylcasein (Example 2); details: recombinant human TG2 400 ng/ml, 2 h at 37° C.
T1 construct: purchased Zedira, Germany
T1 sequence (P21980 1-687): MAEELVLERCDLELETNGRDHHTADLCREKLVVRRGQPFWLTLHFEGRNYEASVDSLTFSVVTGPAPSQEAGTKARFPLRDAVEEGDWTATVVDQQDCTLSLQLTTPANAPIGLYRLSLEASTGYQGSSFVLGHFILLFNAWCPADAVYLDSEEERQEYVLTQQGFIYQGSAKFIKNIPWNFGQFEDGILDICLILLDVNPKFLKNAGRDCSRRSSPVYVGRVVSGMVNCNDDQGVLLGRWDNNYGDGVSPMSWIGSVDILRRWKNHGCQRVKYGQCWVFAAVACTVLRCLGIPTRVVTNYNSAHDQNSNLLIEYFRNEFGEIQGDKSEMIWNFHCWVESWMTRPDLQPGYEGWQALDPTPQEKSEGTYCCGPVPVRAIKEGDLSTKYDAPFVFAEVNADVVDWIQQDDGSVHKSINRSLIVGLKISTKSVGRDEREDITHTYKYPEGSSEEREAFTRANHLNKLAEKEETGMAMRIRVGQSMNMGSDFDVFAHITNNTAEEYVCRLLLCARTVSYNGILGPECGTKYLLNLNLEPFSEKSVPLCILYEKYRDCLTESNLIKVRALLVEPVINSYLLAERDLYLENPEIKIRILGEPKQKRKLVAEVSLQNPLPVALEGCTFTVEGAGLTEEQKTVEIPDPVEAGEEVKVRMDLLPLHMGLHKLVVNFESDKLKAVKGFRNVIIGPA
Experimental: TG transamidation activity and the affect of inhibitors on activity was measured by biotin X-cadaverine incorporation into N,N′-dimethylcasein. After coating 96 well plates with 100 μl of 10 mg/ml N,N′-dimethylcasein in 50 mM Tris-Cl, pH8 at 4° C. over night, plates were washed with TBS-0.05% Tween-20(v/v), pH 7.6 and TBS, pH 7.6, and 100 μl purified recombinant human TG2 (400 ng/ml Zedira, Germany) (tissue transglutaminase) in 50 mM Tris-HCl, pH7.4, containing 1 mM DTT, 10 mM CaCl2 and 0.1 μM biotin-cadaverine added into the coated wells containing the appropriate concentration of inhibitor. The reaction was allowed to proceed for 2 h at 37° C. The plate was then washed twice with TBS-Tween-20 (v/v), pH 7.6 and once with TBS, pH 7.6 before being blocked with 100 μl of blocking buffer (3% (w/v) BSA in TBS-Tween, pH 7.6) for 30 min at 37° C. After blocking, the wells were incubated with 100 μl HRP-conjugated Extr-Avidin peroxidase (Sigma-Aldrich, UK) in blocking buffer (1:1,000 dilution) for 1 h at 37° C. After another set of washes, TG2 activity was measured using Sigma Fast OPD, tablets dissolved in 20 ml of distilled H2O. The colour was developed by adding 2.5 M H2SO4 and the absorbance at 490 nm measured using a microplate reader ELx808™. All inhibitors were dissolved in DMSO as a 100 mM solution prior to addition to the assay.

[2] = biological target: T2, purified recombinant human TG2 (Homo sapiens, UniProt P21980); assay: Selectivity assay, TG2, biotin X-cadaverine incorporation into N,N′-dimethylcasein (Example 4); details: recombinant human TG2 2 μg/ml, 1 h at 37° C.; errors are SD
T2 construct: purchased Zedira, Germany
T2 sequence (P21980 1-687): T1 sequence (P21980 1-687)
Experimental: (§1) TG transamidation activity and the effect of inhibitors on activity was measured by biotin X-cadaverine incorporation into N,N′-dimethylcasein. After coating 96 well plates with 100 μl of 10 mg/ml N,N′-dimethylcasein in 50 mM Tris-Cl, pH8 at 4° C. over night, plates were washed with TBS-0.05% Tween-20(v/v), pH 7.6 and TBS, pH 7.6, and either 100 μl purified recombinant human TG2 (2 μg/ml Zedira, Germany) or 100 μl purified recombinant human FXIIIa (2 μg/ml Zedira, Germany, preactivated by incubation with 0.01 U bovine thrombin/μg FXIII at room temperature for 30 minutes) in 50 mM Tris-HCl, pH7.4, containing 1 mM DTT, 10 mM CaCl2 and 0.1 μM biotin-cadaverine added into the coated wells containing the appropriate concentration of inhibitor. The reaction was allowed to proceed for 1 h at 37° C. The plate was then washed twice with TBS-Tween-20 (v/v), pH 7.6 and once with TBS, pH 7.6 before being blocked with 100 μl of blocking buffer (3% (w/v) BSA in TBS-Tween, pH 7.6) for 30 min at 37° C. After blocking, the wells were incubated with 100 μl HRP-conjugated ExtrAvidin peroxidase (Sigma-Aldrich, UK) in blocking buffer (1:1,000 dilution) for 1 h at 37° C. After another set of washes, TG2 activity was measured using Sigma Fast OPD, tablets dissolved in 20 ml of distilled H2O. The colour was developed by adding 2.5M H2SO4 and the absorbance at 490 nm measured using a microplate reader ELx808™. All inhibitors were dissolved in DMSO as a 100 mM solution prior to addition to the assay.

[3] = biological target: T3, purified recombinant human FXIIIa (Homo sapiens, UniProt P00488); assay: Selectivity assay, FXIIIa, biotin X-cadaverine incorporation into N,N′-dimethylcasein (Example 4); details: recombinant human FXIIIa 2 μg/ml, thrombin preactivated, 1 h at 37° C.; errors are SD; read-out: FACTOR XIII IC50
T3 construct: purchased Zedira, Germany
T3 sequence (P00488 39-732 limits assumed): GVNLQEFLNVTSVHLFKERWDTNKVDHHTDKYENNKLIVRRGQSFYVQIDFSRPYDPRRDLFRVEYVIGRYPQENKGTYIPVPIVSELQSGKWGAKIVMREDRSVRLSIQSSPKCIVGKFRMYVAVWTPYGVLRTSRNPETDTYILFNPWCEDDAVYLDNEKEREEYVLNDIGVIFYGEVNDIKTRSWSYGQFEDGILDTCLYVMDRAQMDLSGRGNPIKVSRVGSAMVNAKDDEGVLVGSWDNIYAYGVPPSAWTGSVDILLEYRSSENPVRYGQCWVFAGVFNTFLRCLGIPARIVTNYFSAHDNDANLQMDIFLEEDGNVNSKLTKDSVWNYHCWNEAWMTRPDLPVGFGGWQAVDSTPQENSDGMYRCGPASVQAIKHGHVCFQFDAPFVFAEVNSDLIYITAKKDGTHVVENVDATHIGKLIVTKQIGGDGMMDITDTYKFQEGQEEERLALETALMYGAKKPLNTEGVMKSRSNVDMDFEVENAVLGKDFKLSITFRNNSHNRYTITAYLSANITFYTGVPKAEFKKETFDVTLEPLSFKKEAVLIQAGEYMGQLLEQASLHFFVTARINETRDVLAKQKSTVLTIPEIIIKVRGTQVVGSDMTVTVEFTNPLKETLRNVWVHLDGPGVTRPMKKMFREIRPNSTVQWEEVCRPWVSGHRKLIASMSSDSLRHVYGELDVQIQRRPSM
Experimental: as §1

IC50 [1]	IC50 [2]	IC50 [3]	Structure (SMILES)
> 100 µM	> 500 µM	15.5 ± 6.3 µM	C[S+](C)CC(=O)N[C@@H](Cc1ccccc1)C(=O)N1CCN(C(=O)OCc2ccccc2)CC1 [EB 1-126]
> 100 µM	> 500 µM	23.3 ± 5.5 µM	C[S+](C)CC(=O)N[C@H](Cc1ccccc1)C(=O)N1CCN(C(=O)OCc2ccccc2)CC1 [EB 1-127]
> 100 µM	> 500 µM	13.5 ± 4.9 µM	C=CC(=O)N[C@H](Cc1ccccc1)C(=O)N1CCN(C(=O)OCc2ccccc2)CC1 [EB 1-131]
